pIC50: −log10 of the molar value. Values belong to the compound of their own block, whether it stands above or below them.
Assays:
U-937 = assay: Inhibition of TNFalpha production in U937 cells; details: Homo sapiens
[1] = molecular target: Mitogen-activated protein kinase 1 (Homo sapiens, UniProt P28482); assay: Inhibition of ERK2
[2] = molecular target: Ribosomal protein S6 kinase alpha-5 (Homo sapiens, UniProt O75582); assay: Inhibition of MSK1
[3] = molecular target: Mitogen-activated protein kinase 9 (Homo sapiens, UniProt P45984); assay: Inhibition of JNK2
Mitogen-activated protein kinase 9, sequence (P45984 whole entry): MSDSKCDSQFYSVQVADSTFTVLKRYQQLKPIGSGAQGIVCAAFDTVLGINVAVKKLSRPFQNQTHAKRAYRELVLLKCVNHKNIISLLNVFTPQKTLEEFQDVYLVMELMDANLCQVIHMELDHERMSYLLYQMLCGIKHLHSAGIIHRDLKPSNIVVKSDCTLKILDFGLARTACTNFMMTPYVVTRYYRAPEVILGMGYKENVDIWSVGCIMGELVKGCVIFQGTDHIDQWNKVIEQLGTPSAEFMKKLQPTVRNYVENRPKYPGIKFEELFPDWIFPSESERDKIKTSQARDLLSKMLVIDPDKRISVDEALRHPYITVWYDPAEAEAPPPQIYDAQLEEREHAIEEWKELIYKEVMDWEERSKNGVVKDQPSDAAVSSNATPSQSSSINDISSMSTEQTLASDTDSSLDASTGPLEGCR

[4] = molecular target: T1, Inhibitor of nuclear factor kappa-B kinase subunit beta (Homo sapiens, UniProt O14920); assay: Inhibition of IKK2
T1 sequence (O14920 whole entry): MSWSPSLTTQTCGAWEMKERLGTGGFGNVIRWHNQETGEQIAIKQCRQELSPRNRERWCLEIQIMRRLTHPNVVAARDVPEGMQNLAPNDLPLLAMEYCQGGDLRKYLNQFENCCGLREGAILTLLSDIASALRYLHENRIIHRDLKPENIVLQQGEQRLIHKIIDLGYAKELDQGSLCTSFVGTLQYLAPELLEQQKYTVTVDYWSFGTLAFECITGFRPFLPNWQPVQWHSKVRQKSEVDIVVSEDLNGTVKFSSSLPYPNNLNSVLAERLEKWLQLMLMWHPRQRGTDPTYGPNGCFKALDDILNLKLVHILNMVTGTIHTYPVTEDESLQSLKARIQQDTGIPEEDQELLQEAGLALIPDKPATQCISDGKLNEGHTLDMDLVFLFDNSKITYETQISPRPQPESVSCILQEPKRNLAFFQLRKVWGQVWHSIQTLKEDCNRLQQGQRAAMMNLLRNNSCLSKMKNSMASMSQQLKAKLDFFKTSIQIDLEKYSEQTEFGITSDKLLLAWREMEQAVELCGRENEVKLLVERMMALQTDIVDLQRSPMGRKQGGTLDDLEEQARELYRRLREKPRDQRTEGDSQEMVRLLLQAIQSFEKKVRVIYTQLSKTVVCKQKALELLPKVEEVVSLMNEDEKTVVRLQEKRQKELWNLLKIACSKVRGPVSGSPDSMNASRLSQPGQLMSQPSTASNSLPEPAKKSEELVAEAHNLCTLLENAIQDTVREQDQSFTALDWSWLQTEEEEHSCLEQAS

[5] = molecular target: MAP kinase-activated protein kinase 3 (Homo sapiens, UniProt Q16644); assay: Inhibition of MK3; type: single protein
MAP kinase-activated protein kinase 3, sequence (Q16644 whole entry): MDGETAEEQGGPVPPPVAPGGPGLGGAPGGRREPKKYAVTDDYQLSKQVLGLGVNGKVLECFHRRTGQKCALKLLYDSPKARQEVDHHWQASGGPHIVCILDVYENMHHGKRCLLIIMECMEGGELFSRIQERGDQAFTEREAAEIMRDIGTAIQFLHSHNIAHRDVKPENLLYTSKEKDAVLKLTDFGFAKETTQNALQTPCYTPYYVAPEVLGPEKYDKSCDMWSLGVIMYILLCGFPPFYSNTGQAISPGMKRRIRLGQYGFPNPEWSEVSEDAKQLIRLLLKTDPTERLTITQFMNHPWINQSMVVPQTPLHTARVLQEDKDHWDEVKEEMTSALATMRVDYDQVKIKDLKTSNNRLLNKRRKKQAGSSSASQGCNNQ

[6] = molecular target: T2, MAP kinase-activated protein kinase 5 (Homo sapiens, UniProt Q8IW41); assay: Inhibition of PRAK
T2 sequence (Q8IW41 whole entry): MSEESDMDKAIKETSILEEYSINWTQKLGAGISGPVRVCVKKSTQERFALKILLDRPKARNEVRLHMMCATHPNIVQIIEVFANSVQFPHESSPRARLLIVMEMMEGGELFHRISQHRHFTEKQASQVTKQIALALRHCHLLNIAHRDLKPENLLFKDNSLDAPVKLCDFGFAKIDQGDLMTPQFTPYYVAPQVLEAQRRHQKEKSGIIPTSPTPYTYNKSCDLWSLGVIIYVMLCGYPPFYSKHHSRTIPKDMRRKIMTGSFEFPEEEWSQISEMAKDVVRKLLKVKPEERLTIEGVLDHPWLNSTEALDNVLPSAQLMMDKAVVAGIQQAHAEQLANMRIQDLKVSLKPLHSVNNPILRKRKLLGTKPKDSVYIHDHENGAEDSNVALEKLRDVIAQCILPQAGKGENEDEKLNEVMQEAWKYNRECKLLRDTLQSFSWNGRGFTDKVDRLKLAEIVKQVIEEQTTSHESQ

[7] = molecular target: Mitogen-activated protein kinase 14 (Homo sapiens, UniProt Q16539); assay: Inhibition of p38alpha
Mitogen-activated protein kinase 14, sequence (Q16539 whole entry): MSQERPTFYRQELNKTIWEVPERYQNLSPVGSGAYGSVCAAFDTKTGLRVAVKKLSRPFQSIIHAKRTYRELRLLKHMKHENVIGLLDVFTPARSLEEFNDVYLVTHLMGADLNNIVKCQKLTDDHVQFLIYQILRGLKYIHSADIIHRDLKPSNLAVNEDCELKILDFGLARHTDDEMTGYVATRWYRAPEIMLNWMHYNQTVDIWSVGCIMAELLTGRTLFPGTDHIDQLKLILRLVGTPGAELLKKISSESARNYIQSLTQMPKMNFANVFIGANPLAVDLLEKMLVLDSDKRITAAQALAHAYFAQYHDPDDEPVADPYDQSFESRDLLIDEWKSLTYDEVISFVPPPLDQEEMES

[8] = molecular target: MAP kinase-activated protein kinase 2 (Homo sapiens, UniProt P49137)
MAP kinase-activated protein kinase 2, sequence (P49137 whole entry): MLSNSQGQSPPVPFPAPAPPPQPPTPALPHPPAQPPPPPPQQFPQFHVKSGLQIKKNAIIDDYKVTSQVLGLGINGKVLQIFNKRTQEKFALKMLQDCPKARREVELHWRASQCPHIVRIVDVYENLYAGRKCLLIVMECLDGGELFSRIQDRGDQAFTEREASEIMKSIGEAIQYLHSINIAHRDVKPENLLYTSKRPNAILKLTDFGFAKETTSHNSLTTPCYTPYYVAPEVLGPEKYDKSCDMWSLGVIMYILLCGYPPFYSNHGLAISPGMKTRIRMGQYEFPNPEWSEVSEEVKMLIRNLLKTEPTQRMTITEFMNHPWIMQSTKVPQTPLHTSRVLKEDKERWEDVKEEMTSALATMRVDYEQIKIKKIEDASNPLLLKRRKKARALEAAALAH

Rattus norvegicus = assay: Inhibition of TNFalpha production in rat at 40 mg/kg, ip administered 1 hr prior to LPS challenge; type: functional; design: scale not given: the % may be the effect or the level left; details: route intraperitoneal
[9] = molecular target: MAP kinase-interacting serine/threonine-protein kinase 1 (Homo sapiens, UniProt Q9BUB5); assay: Inhibition of MNK1
MAP kinase-interacting serine/threonine-protein kinase 1, sequence (Q9BUB5 whole entry): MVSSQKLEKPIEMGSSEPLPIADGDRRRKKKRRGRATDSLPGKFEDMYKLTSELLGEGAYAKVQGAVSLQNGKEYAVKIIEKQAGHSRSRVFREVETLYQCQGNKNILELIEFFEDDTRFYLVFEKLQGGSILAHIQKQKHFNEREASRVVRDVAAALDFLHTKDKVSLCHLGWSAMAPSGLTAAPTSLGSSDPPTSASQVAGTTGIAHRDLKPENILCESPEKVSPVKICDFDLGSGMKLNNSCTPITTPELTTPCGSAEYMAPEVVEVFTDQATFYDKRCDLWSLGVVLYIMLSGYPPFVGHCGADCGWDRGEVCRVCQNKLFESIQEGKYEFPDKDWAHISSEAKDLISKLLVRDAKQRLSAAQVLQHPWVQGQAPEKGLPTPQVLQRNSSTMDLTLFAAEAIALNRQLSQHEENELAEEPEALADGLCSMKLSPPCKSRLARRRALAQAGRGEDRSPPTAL

Ribosomal protein S6 kinase alpha-5, sequence (O75582 whole entry): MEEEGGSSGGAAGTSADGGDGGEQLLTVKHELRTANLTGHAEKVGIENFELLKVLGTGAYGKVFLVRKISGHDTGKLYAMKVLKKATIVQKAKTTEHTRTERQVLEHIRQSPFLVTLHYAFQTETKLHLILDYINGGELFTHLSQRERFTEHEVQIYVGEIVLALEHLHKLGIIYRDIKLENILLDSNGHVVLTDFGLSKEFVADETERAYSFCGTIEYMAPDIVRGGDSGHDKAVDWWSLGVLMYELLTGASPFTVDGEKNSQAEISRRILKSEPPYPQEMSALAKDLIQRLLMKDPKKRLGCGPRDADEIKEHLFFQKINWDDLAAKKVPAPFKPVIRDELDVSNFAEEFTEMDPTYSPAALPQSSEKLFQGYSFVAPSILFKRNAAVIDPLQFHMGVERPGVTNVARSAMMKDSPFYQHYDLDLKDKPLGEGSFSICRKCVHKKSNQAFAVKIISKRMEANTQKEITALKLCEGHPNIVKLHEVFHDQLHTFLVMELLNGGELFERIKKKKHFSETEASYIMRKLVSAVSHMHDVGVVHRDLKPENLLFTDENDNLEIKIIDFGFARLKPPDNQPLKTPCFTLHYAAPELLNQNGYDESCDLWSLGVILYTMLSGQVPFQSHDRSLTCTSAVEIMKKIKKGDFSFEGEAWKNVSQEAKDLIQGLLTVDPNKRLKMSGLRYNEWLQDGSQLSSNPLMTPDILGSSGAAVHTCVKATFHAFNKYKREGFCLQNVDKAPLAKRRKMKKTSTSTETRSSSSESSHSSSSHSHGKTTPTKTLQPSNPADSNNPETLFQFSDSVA
Mitogen-activated protein kinase 1, sequence (P28482 whole entry): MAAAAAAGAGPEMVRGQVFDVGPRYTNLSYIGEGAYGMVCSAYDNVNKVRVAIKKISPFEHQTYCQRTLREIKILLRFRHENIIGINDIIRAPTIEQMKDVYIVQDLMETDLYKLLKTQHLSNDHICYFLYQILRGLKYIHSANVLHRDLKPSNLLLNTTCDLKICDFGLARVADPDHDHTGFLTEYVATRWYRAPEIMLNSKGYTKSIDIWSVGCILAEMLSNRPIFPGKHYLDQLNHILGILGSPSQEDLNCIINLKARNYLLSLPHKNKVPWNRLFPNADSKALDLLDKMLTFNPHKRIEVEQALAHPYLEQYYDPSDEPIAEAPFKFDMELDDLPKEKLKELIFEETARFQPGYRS

Structure (SMILES): COc1ccc2[nH]c3c(c2c1)C1CCN(C1)C3C(=O)OCc1ccccc1 (centres undefined)
- pIC50 (U-937): 5.77

Structure (SMILES): C=CCOC(=O)C1c2[nH]c3ccc(OC)cc3c2C2CCN1C2 (centres undefined)
- pIC50 (U-937): 4.84

Structure (SMILES): COc1ccc2[nH]c3c(c2c1)CCNC3C(=O)O (centres undefined)
- pIC50 [1]: < 4.00
- pIC50 [2]: < 3.70
- pIC50 [3]: < 3.70
- pIC50 [4]: < 3.70
- pIC50 [5]: < 3.70
- pIC50 [6]: 4.72
- pIC50 [7]: < 4.00

Structure (SMILES): COc1ccc2[nH]c3c(c2c1)C1CCN(C1)C3C(=O)OC(C)c1ccccc1 (centres undefined)
- pIC50 (U-937): 4.99

Structure (SMILES): COc1ccc2[nH]c3c(c2c1)C1CCCN(C1)C3C(=O)O (centres undefined)
- pIC50 [5]: 3.80

Structure (SMILES): CCCOC(=O)C1c2[nH]c3ccc(OC)cc3c2C2CCN1C2 (centres undefined)
- Activity (Rattus norvegicus): 84%
- pIC50 (U-937): 6.08

Continued, values first:

- pIC50 [8]: 3.77
Structure (SMILES): CC(=O)Oc1ccc2[nH]c3c(c2c1)CCNC3C(=O)O (centres undefined)

- pIC50 [8]: 3.89
Structure (SMILES): COc1ccc2[nH]c3c(c2c1)CCNC3c1nnn[nH]1 (centres undefined)

- pIC50 (U-937): 5.25
Structure (SMILES): CCOC(=O)C1c2[nH]c3ccc(OC)cc3c2C2CCN1C2 (centres undefined)

- pIC50 [2]: < 3.70
- pIC50 (U-937): 4.09
- pIC50 [3]: < 3.70
- pIC50 [4]: < 3.70
- pIC50 [5]: 4.05
- pIC50 [6]: 4.62
- pIC50 [9]: < 3.70
- pIC50 [7]: < 4.00
Structure (SMILES): COc1ccc2[nH]c3c(c2c1)C1CCN(C1)C3C(=O)O (centres undefined)
